Reference: patent US12642859B2, “Macropinocytosis selective monobody-drug conjugates” (priority 2020, dated 2026)
Square brackets hold non-standard residues; d marks the D form. Peptide text beside a SMILES is read from it. * marks the point of attachment. Dolaproine = CO[C@@H]([C@@H]1CCCN1)[C@@H](C)C(=O)O; Dil = CC[C@H](C)[C@H](NC)[C@@H](CC(=O)O)OC; X1 = C[C@@H](N*)[C@@H](O)c1ccccc1; NMeV = CN[C@H](C(=O)O)C(C)C

Key:
[1] = test system: KMS11 WT Ras, L363 Mutant NRAS, and RPMI 8226 Mutant KRas cells; assay: Uptake of fluorescently-tagged monobody and MP marker in multiple myeloma cell lines; format: cell-based, human
Text: FIGS. 14A-14C show uptake of fluorescently-tagged monobody and MP marker in human multiple myeloma cancer cell lines. FIGS. 14A and 14B are images showing co-localization of the fluorescently-tagged monobody (red) and MP marker (dextran, green) in KMS11 WT Ras, L363 Mutant NRAS, and RPMI 8226 Mutant KRas cells. DAPI, blue.
The differential uptake was established not only in cell lines of solid tumors, but also in blood cancer such as multiple myeloma. […] Using a similar system to the HeLa KRas^V12 inducible system, we created an inducible KRas^V12 cell system in wild type KRas KMS11 multiple myeloma cells.

HeLa KRas^V12 cells = assay: Macropinocytic uptake of fluorescently labeled non-binding FN domain, co-localization with TMR-dextran (doxycycline-inducible system); format: cell-based, human
Text: (§1) FIG. 2A and FIG. 2B show the uptake of the fluorescently-tagged monobody and MP marker in human PDAC MIA PaCa and HeLa or HeLa KRas^V12 cells. Co-localization of the fluorescently-tagged monobody (green) and MP marker (dextran, red) in. DAPI, blue. Boxed region is enlarged, inset.
(§2) To determine if non-binding FN domains could be internalized, a well-established doxycycline-inducible mutant KRas^V12 HeLa cell system (hereafter, HeLa KRas^V12) was used in which macropinocytosis is monitored by high-molecular-weight (70 kDa) tetramethyl-rhodamine labeled (TMR−) dextran.

[2] = test system: mutant KRas PDAC cell line MIA PaCa-2; assay: Macropinocytic uptake, co-localization with dextran; format: cell-based, human
Text: as §1, §2

KPC 1203 cells = assay: as above; format: cell-based, mouse
[3] = Ex vivo organ toxicity analysis (H&E, apoptotic markers, tubulin staining) of MIA PaCa tumor bearing mice; format: in vivo
Experimental: FIGS. 5A-5B show the enhanced toxicity of FN-MMAE (monobody) in oncogenic KRas cell lines in vivo. In FIG. 5A, established (100-150 mm^3) subcutaneous MiaPaCa and BxPC3 tumors were treated with, PBS (negative control), 0.2 mg/kg of MMAE alone, or 0.2 mg/kg of FN-MMAE non-binding protein conjugate on Days 0, 7, and 14 (yellow arrows). Tumor growth as assessed by volume was slower in FN-MMAE treated animals compared to MMAE treated alone. n=4 per treatment group. Error bars represent SEM of tumor volume.
FIGS. 6A-6B show ex vivo analysis and mode of action of MMAE.
To test the effects in vivo, a MIA PaCa-2 subcutaneous tumor model was used to compare the efficacy of PBS, MMAE, and FN-MMAE (FIG. 5A). After tumors were established, three injections of 0.2 mg/kg drug with respect to MMAE concentration was administered every 7 days. […] This highlights the specificity of reduced uptake by non-macropinocytic cells in relation to free drug, which contributes to the selective effect of the non-binding FN domain-drug conjugate.

| Structure (SMILES) | effect of macropinocytosis inhibitor on FN-Cy5.5 uptake [1] | effect of macropinocytosis inhibitor on FN domain and dextran uptake (HeLa KRas^V12 cells) | effect of macropinocytosis inhibitor on uptake of dextran and FN-Cy5.5 [2] | effect of macropinocytosis inhibitor on uptake of dextran and FN-Cy5.5 (KPC 1203 cells) | H&E of ex vivo organs ([3]; MIA PaCa tumor bearing mice) | tubulin staining ([3]; kidneys) | apoptotic marker expression (CC3, HMGB1, cleaved Parp1) ([3]; kidneys, compared to PBS) |
| --- | --- | --- | --- | --- | --- | --- | --- |
| CCN(c1nc(N)c(C(=O)NC(=N)N)nc1Cl)C(C)C [EIPA] | abolished | blocked both non-binding FN domain and dextran uptake | abolished uptake of both macromolecules | abolished uptake of both macromolecules | – | – | – |
| CC(Sc1nc2ccccc2[nH]1)C(=O)N/N=C/c1cc(Br)ccc1O (centres unmarked) [KH7] | abolished | – | – | – | – | – | – |
| CC[C@H](C)[C@@H]([C@@H](CC(=O)N1CCC[C@H]1[C@H](OC)[C@@H](C)C(=O)N[C@H](C)[C@@H](O)c1ccccc1)OC)N(C)C(=O)[C@@H](NC(=O)[C@@H](NC)C(C)C)C(C)C [MMAE, monomethyl auristatin E] (H-[NMeV]V[Dil][Dolaproine]-X1) | – | – | – | – | visual liver damage | drastically reduced | substantial increase in non-specific toxicity |
